We go through 26 compounds from patent US20080293696A1, “2-Aminoarylcarboxamides Useful as Cancer Chemotherapeutic Agents” (Bayer Pharmaceuticals Corporation, priority 2004, published 2008).

The experiment relates to PAKT/PKB (p-(S473) AKT) in H209 small cell lung carcinoma cells stimulated with Stem Cell Factor. The experiment in a line: PAKT/PKB Cytoblot Assay with H209 cells (SCF-stimulated p-(S473) AKT). It counts as cell-based. As to conditions: Homo sapiens, NCI-H209, compound 1 hour, SCF 25 ng/mL 5 minutes. Here is the method: PAKT/PKB Cytoblot Assay Protocol with H209 Cells
H209 small cell lung carcinoma cells in log phase were plated at 50,000 cells/well in 96-well poly-lysine coated, clear bottom/black-sided plates (BD Cat # 354640) in 100 μl RPMI medium containing 0.1% (w/v) BSA, and incubated overnight at 37° C. in 5% CO2 incubator. The following day, compounds (10 mM stock solutions in DMSO) were added to the plates to generate final concentrations of 0.0, 0.01, 0.03, 0.1, 0.3, 1.0, 3.0 and 10 μM for IC50 determinations and incubated for 1 hour at 37° C. Cells were then left untreated or stimulated with Stem Cell Factor (SCF: Biosource Cat # PHC2116) at a final concentration of 25 ng/mL for 5 minutes at 37° C. in 5% CO2 incubator. The media was then removed using a vacuum manifold and the cells were washed once with Tris Buffered Saline (TBS).
Cells were then fixed by adding 200 μl of cold 3.7% (v/v) formaldehyde in TBS to each well for 15 minutes at 4° C. After removal of the formaldehyde, the cells were treated with the addition of 50 μl of methanol (at −20° C.) to each well for 5 minutes. After removal of the methanol, […] of 1% (w/v) BSA in TBS was added to each well to block non-specific antibody binding sites and the plate was incubated at room temperature for 30 minutes.
After removal of the blocking buffer, 50 μl of p-(S473) AKT rabbit polyclonal antibody (Cell Signaling Cat # 9277S) was added at a dilution of 1:250 in 0.1% (w/v) BSA in TBS, and the plate was incubated at room temperature for 1 hour. Plates were then washed 3 times with cold TBS containing 0.05% (v/v) Tween 20 (TBS-T) and […] of Horseradish peroxidase (HRP)-conjugated goat-anti-rabbit antibody (Amersham Cat # NA934V) at a dilution of 1:250 in TBS-T was added and the plate was incubated at room temperature for 1 h. After washing with ice-cold TBS-T four times, 100 μl of Enhanced Chemiluminescence (ECL) reagent (Amersham Cat# RPN2209) was added to each well and mixed on a mini-orbital shaker for 1 min. The plate was then read on a Perkin Elmer Victor 5 Multilabel Counter (#1420-0421).

Setting [1] is: group: between 500 nM and 1 μM (units in value).

The term IC50 denotes the concentration that inhibits the measured activity by half. The low end stands for higher potency, the high end for lower potency. `N#Cc1cc(CNc2ccc(F)cc2C(=O)Nc2ccc3c(c2)OC(F)(F)O3)ccn1` [Example 30, 2-{[(2-cyanopyridin-4-yl)methyl]amino}-N-(2,2-difluoro-1,3-benzodioxol-5-yl)-5-fluorobenzamide]: the IC50 (group: less than 500 nM) was under 500 nM. `CNC(=O)c1cc(CNc2ccc(F)cc2C(=O)Nc2ccc3c(c2)OC(F)(F)O3)ccn1` [Example 31, 4-{[(2-{[(2,2-difluoro-1,3-benzodioxol-5-yl)amino]carbonyl}-4-fluorophenyl)amino]methyl}-N-methylpyridine-2-carboxamide] came in with an IC50 (group: less than 500 nM) of under 500 nM. In turn, `CNC(=O)c1cc(CNc2cc(F)ccc2C(=O)Nc2ccc3c(c2)OC(F)(F)C(F)(F)O3)ccn1` [Example 32, 4-{[(5-fluoro-2-{[(2,2,3,3-tetrafluoro-2,3-dihydro-1,4-benzodioxin-6-yl)amino]carbonyl}phenyl)amino]methyl}-N-methylpyridine-2-carboxamide] returned an IC50 (group: less than 500 nM) of under 500 nM. Regarding `CNC(=O)c1cc(CNc2cc(F)ccc2C(=O)Nc2ccc3c(c2)OC(F)(F)O3)ccn1` [Example 33, 4-{[(2-{[(2,2-difluoro-1,3-benzodioxol-5-yl)amino]carbonyl}-5-fluorophenyl)amino]methyl}-N-methylpyridine-2-carboxamide], for the setting “group: less than 500 nM”, the IC50 is under 500 nM.

On to `CNC(=O)c1cc(CNc2ccc(F)cc2C(=O)Nc2ccc3c(c2)OC(F)(F)C(F)(F)O3)ccn1` [Example 34, 4-{[(4-fluoro-2-{[(2,2,3,3-tetrafluoro-2,3-dihydro-1,4-benzodioxin-6-yl)amino]carbonyl}phenyl)amino]methyl}-N-methylpyridine-2-carboxamide], for which, where the note is “group: less than 500 nM”, the IC50 is under 500 nM. On to `N#Cc1cc(CNc2cc(F)c(F)cc2C(=O)Nc2ccc3c(c2)OC(F)(F)O3)ccn1` [Example 36, 2-{[(2-cyanopyridin-4-yl)methyl]amino}-N-(2,2-difluoro-1,3-benzodioxol-5-yl)-4,5-difluorobenzamide], for which the IC50 (group: between 1 and 3 μM) was in the range of 1000 to 3000 nM. `CNC(=O)c1cc(CNc2cc(F)c(F)cc2C(=O)Nc2ccc3c(c2)OC(F)(F)C(F)(F)O3)ccn1` [Example 37, 4-{[(4,5-difluoro-2-{[(2,2,3,3-tetrafluoro-2,3-dihydro-1,4-benzodioxin-6-yl)amino]carbonyl}phenyl)amino]methyl}-N-methylpyridine-2-carboxamide] showed an IC50 (group: less than 500 nM) of under 500 nM.

With `N#Cc1cc(CNc2cc(F)c(F)cc2C(=O)Nc2ccc3c(c2)OC(F)(F)C(F)(F)O3)ccn1` [Example 38, 2-{[(2-cyanopyridin-4-yl)methyl]amino}-4,5-difluoro-N-(2,2,3,3-tetrafluoro-2,3-dihydro-1,4-benzodioxin-6-yl)benzamide], the IC50 under setting [1] was in the range of 500 to 1000 nM. On to `O=C(Nc1ccc2c(c1)OC(F)(F)C(F)(F)O2)c1ncncc1NCc1ccncc1` [Example 39, 5-[(pyridin-4-ylmethyl)amino]-N-(2,2,3,3-tetrafluoro-2,3-dihydro-1,4-benzodioxin-6-yl)pyrimidine-4-carboxamide], for which the IC50 (group: between 1 and 3 μM) is 1000 to 3000 nM. `O=C(Nc1ccc2c(c1)C(F)(F)OC(F)(F)O2)c1ccccc1NCc1ccnc(C2=NCCN2)c1` [Example 40, 2-({[2-(4,5-dihydro-1H-imidazol-2-yl)pyridin-4-yl]methyl}amino)-N-(2,2,4,4-tetrafluoro-4H-1,3-benzodioxin-6-yl)benzamide] registered an IC50 under setting [1] of 500 to 1000 nM.

In the case of `O=C(Nc1ccc2c(c1)OC(F)(F)O2)c1cc(F)ccc1NCc1ccnc(C2=NCCN2)c1` [Example 41, N-(2,2-difluoro-1,3-benzodioxol-5-yl)-2-({[2-(4,5-dihydro-1H-imidazol-2-yl)pyridin-4-yl]methyl}amino)-5-fluorobenzamide], where the note is “group: between 1 and 3 μM”, the IC50 lay in the range of 1000 to 3000 nM. Still for that read-out and setting: the same measure for `CN(C)C(=O)c1cc(CNc2ccc(F)cc2C(=O)Nc2ccc3c(c2)OC(F)(F)O3)ccn1` [Example 42, 4-{[(2-{[(2,2-difluoro-1,3-benzodioxol-5-yl)amino]carbonyl}-4-fluorophenyl)amino]methyl}-N,N-dimethylpyridine-2-carboxamide]: 1000 to 3000 nM. With `CCNC(=O)c1cc(CNc2cc(F)c(F)cc2C(=O)Nc2ccc3c(c2)OC(F)(F)C(F)(F)O3)ccn1` [Example 43, 4-{[(4,5-difluoro-2-{[(2,2,3,3-tetrafluoro-2,3-dihydro-1,4-benzodioxin-6-yl)amino]carbonyl}phenyl)amino]methyl}-N-ethylpyridine-2-carboxamide], the IC50 under setting [1] fell in the range of 500 to 1000 nM. As for `CCNC(=O)c1cc(CNc2ccccc2C(=O)Nc2ccc3c(c2)OC(F)(F)C(F)(F)O3)ccn1` [Example 44, N-ethyl-4-{[(2-{[(2,2,3,3-tetrafluoro-2,3-dihydro-1,4-benzodioxin-6-yl)amino]carbonyl}phenyl)amino]methyl}pyridine-2-carboxamide], the half-inhibitory concentration (IC50) (group: less than 500 nM) is under 500 nM. Where the note is “group: less than 500 nM”, `CCNC(=O)c1cc(CNc2ccccc2C(=O)Nc2ccc3c(c2)OC(F)(F)O3)ccn1` [Example 45, 4-{[(2-{[(2,2-difluoro-1,3-benzodioxol-5-yl)amino]carbonyl}phenyl)amino]methyl}-N-ethylpyridine-2-carboxamide] registered an IC50 of under 500 nM. On the same count and under the same terms, the same measure for `CCNC(=O)c1cc(CNc2ccc(F)cc2C(=O)Nc2ccc3c(c2)OC(F)(F)O3)ccn1` [Example 46, 4-{[(2-{[(2,2-difluoro-1,3-benzodioxol-5-yl)amino]carbonyl}-4-fluorophenyl)amino]methyl}-N-ethylpyridine-2-carboxamide]: under 500 nM; for `CCNC(=O)c1cc(CNc2cc(F)ccc2C(=O)Nc2ccc3c(c2)OC(F)(F)O3)ccn1` [Example 47, 4-{[(2-{[(2,2-difluoro-1,3-benzodioxol-5-yl)amino]carbonyl}-5-fluorophenyl)amino]methyl}-N-ethylpyridine-2-carboxamide]: under 500 nM. Turning to `CN(C)c1nccc(CNc2ccccc2C(=O)Nc2ccc3c(c2)OC(F)(F)O3)n1` [Example 48, N-(2,2-difluoro-1,3-benzodioxol-5-yl)-2-({[2-(dimethylamino)pyrimidin-4-yl]methyl}amino)benzamide], the IC50 (group: less than 500 nM) was under 500 nM. Consider `CNc1nccc(CNc2ccccc2C(=O)Nc2ccc3c(c2)OC(F)(F)O3)n1` [Example 49, N-(2,2-difluoro-1,3-benzodioxol-5-yl)-2-({[2-(methylamino)pyrimidin-4-yl]methyl}amino)benzamide], for which, under “group: less than 500 nM”, the IC50 was under 500 nM. In turn, `CN(C)c1nccc(CNc2ccccc2C(=O)Nc2ccc3c(c2)OC(F)(F)C(F)(F)O3)n1` [Example 50, 2-({[2-(dimethylamino)pyrimidin-4-yl]methyl}amino)-N-(2,2,3,3-tetrafluoro-2,3-dihydro-1,4-benzodioxin-6-yl)benzamide] returned an IC50 under setting [1] of 500 to 1000 nM. Under “group: less than 500 nM”, `CNc1nccc(CNc2ccccc2C(=O)Nc2ccc3c(c2)OC(F)(F)C(F)(F)O3)n1` [Example 51, 2-({[2-(methylamino)pyrimidin-4-yl]methyl}amino)-N-(2,2,3,3-tetrafluoro-2,3-dihydro-1,4-benzodioxin-6-yl)benzamide] showed an IC50 of under 500 nM.

In the case of `O=C(NC1CC1)c1cc(CNc2ccccc2C(=O)Nc2ccc3c(c2)OC(F)(F)O3)ccn1` [Example 74, N-cyclopropyl-4-{[(2-{[(2,2-difluoro-1,3-benzodioxol-5-yl)amino]carbonyl}phenyl)amino]methyl}pyridine-2-carboxamide], for the setting “group: less than 500 nM”, the IC50 was under 500 nM. `NC(=O)c1cc(CNc2ccccc2C(=O)Nc2ccc3c(c2)OC(F)(F)O3)ccn1` [Example 75, 4-{[(2-{[(2,2-Difluoro-1,3-benzodioxol-5-yl)amino]carbonyl}phenyl)amino]methyl}pyridine-2-carboxamide] displayed a half-inhibitory concentration (IC50) (group: less than 500 nM) of under 500 nM.

Turning to `COC(=O)c1cc(CNc2ccccc2C(=O)Nc2ccc3c(c2)OC(F)(F)O3)ccn1` [Example 76, methyl 4-{[(2-{[(2,2-difluoro-1,3-benzodioxol-5-yl)amino]-carbonyl}phenyl)amino]methyl}pyridine-2-carboxylate], the half-maximal inhibitory concentration (IC50) (group: less than 500 nM) was under 500 nM.

With `CC1(C)OCC(CNC(=O)c2cc(CNc3ccccc3C(=O)Nc3ccc4c(c3)OC(F)(F)O4)ccn2)O1` (centres unmarked) [Example 78, 4-{[(2-{[(2,2-Difluoro-1,3-benzodioxol-5-yl)amino]carbonyl}phenyl)amino]methyl}-N-[(2,2-dimethyl-1,3-dioxolan-4-yl)methyl]pyridine-2-carboxamide], the IC50 under setting [1] was in the range of 500 to 1000 nM. Where the note is “group: less than 500 nM”, `O=C(NCC(O)CO)c1cc(CNc2ccccc2C(=O)Nc2ccc3c(c2)OC(F)(F)O3)ccn1` (centres unmarked) [Example 79, 4-{[(2-{[(2,2-Difluoro-1,3-benzodioxol-5-yl)amino]carbonyl}phenyl)amino]methyl}-N-(2,3-dihydroxypropyl)pyridine-2-carboxamide] had an IC50 of under 500 nM.
